# Assay results from PubChem BioAssay (NCI).
#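 Cultured in 96-well plates, cells were exposed to test compound for 48 hours across five concentrations. GI50: concentration for 50% inhibition of growth. TGI: total growth inhibition.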
# Experiments:
# Experiment in all cases: growth of human tumour cells (NCI), 48 h
# 786-0 renal = tested on: 786-0 renal
# A498 renal = tested on: A498 renal
# A549 NSCLC = tested on: A549 NSCLC
# ACHN renal = tested on: ACHN renal
# BT-549 breast = tested on: BT-549 breast
# CAKI-1 renal = tested on: CAKI-1 renal
# CCRF-CEM leukemia = tested on: CCRF-CEM leukemia
# COLO 205 colon = tested on: COLO 205 colon
# DU-145 prostate = tested on: DU-145 prostate
# EKVX NSCLC = tested on: EKVX NSCLC
# HCC-2998 colon = tested on: HCC-2998 colon
# HCT-116 colon = tested on: HCT-116 colon
# HCT-15 colon = tested on: HCT-15 colon
# HL-60(TB) leukemia = tested on: HL-60(TB) leukemia
# HOP-62 NSCLC = tested on: HOP-62 NSCLC
# HOP-92 NSCLC = tested on: HOP-92 NSCLC
# HS 578T breast = tested on: HS 578T breast
# HT29 colon = tested on: HT29 colon
# IGROV1 ovarian = tested on: IGROV1 ovarian
# K-562 leukemia = tested on: K-562 leukemia
# KM12 colon = tested on: KM12 colon
# LOX IMVI melanoma = tested on: LOX IMVI melanoma
# M14 melanoma = tested on: M14 melanoma
# MALME-3M melanoma = tested on: MALME-3M melanoma
# MCF7 breast = tested on: MCF7 breast
# MDA-MB-231 breast = tested on: MDA-MB-231 breast
# MDA-MB-435 = tested on: MDA-MB-435
# MDA-MB-468 breast = tested on: MDA-MB-468 breast
# MOLT-4 leukemia = tested on: MOLT-4 leukemia
# NCI-H226 lung = tested on: NCI-H226 lung
# NCI-H23 lung = tested on: NCI-H23 lung
# NCI-H460 lung = tested on: NCI-H460 lung
# NCI-H522 lung = tested on: NCI-H522 lung
# NCI/ADR-RES ovarian = tested on: NCI/ADR-RES ovarian
# OVCAR-3 ovarian = tested on: OVCAR-3 ovarian
# OVCAR-4 ovarian = tested on: OVCAR-4 ovarian
# OVCAR-5 ovarian = tested on: OVCAR-5 ovarian
# OVCAR-8 ovarian = tested on: OVCAR-8 ovarian
# PC-3 prostate = tested on: PC-3 prostate
# RPMI-8226 leukemia = tested on: RPMI-8226 leukemia
# RXF 393 renal = tested on: RXF 393 renal
# SF-268 CNS = tested on: SF-268 CNS
# SF-295 CNS = tested on: SF-295 CNS
# SF-539 CNS = tested on: SF-539 CNS
# SK-MEL-2 melanoma = tested on: SK-MEL-2 melanoma
# SK-MEL-28 melanoma = tested on: SK-MEL-28 melanoma
# SK-MEL-5 melanoma = tested on: SK-MEL-5 melanoma
# SK-OV-3 ovarian = tested on: SK-OV-3 ovarian
# SN12C renal = tested on: SN12C renal
# SNB-19 CNS = tested on: SNB-19 CNS
# SR leukemia = tested on: SR leukemia
# SW-620 colon = tested on: SW-620 colon
# T-47D breast = tested on: T-47D breast
# TK-10 renal = tested on: TK-10 renal
# U251 CNS = tested on: U251 CNS
# UACC-257 melanoma = tested on: UACC-257 melanoma
# UACC-62 melanoma = tested on: UACC-62 melanoma
# UO-31 renal = tested on: UO-31 renal
smiles,measurement,setting,value
Cc1cc2c(c(O)c1Br)-c1ncoc1C(=O)[C@]1(C)CC[C@H](C(C)C)[C@H]21,GI50,786-0 renal,7.18 µM
same,TGI,786-0 renal,21.9 µM
same,GI50,A498 renal,> 100 µM
same,TGI,A498 renal,> 100 µM
same,GI50,A549 NSCLC,4.33 µM
same,TGI,A549 NSCLC,29.6 µM
same,GI50,ACHN renal,10.1 µM
same,TGI,ACHN renal,34 µM
same,GI50,BT-549 breast,4.64 µM
same,TGI,BT-549 breast,17.1 µM
same,GI50,CAKI-1 renal,4.73 µM
same,TGI,CAKI-1 renal,33.6 µM
same,GI50,CCRF-CEM leukemia,4.14 µM
same,TGI,CCRF-CEM leukemia,27.1 µM
same,GI50,COLO 205 colon,2.61 µM
same,TGI,COLO 205 colon,10.3 µM
same,GI50,DU-145 prostate,5 µM
same,TGI,DU-145 prostate,21.2 µM
same,GI50,EKVX NSCLC,6.77 µM
same,TGI,EKVX NSCLC,28.6 µM
same,GI50,HCC-2998 colon,4.22 µM
same,TGI,HCC-2998 colon,17.7 µM
same,GI50,HCT-116 colon,3.17 µM
same,TGI,HCT-116 colon,13.8 µM
same,GI50,HCT-15 colon,2.62 µM
same,TGI,HCT-15 colon,11.8 µM
same,GI50,HL-60(TB) leukemia,2.19 µM
same,TGI,HL-60(TB) leukemia,6.69 µM
same,GI50,HOP-62 NSCLC,4.45 µM
same,TGI,HOP-62 NSCLC,21.7 µM
same,GI50,HOP-92 NSCLC,1.03 µM
same,TGI,HOP-92 NSCLC,5.99 µM
same,GI50,HS 578T breast,5.34 µM
same,TGI,HS 578T breast,> 100 µM
same,GI50,HT29 colon,2.77 µM
same,TGI,HT29 colon,16 µM
same,GI50,IGROV1 ovarian,4.42 µM
same,TGI,IGROV1 ovarian,82.4 µM
same,GI50,K-562 leukemia,2.93 µM
same,TGI,K-562 leukemia,11.6 µM
same,GI50,KM12 colon,3.49 µM
same,TGI,KM12 colon,35.6 µM
same,GI50,LOX IMVI melanoma,3.71 µM
same,TGI,LOX IMVI melanoma,14.5 µM
same,GI50,M14 melanoma,2.85 µM
same,TGI,M14 melanoma,14 µM
same,GI50,MALME-3M melanoma,2.61 µM
same,TGI,MALME-3M melanoma,11.8 µM
same,GI50,MCF7 breast,3.45 µM
same,TGI,MCF7 breast,15.2 µM
same,GI50,MDA-MB-231 breast,4.36 µM
same,TGI,MDA-MB-231 breast,18.8 µM
same,GI50,MDA-MB-435,2.07 µM
same,TGI,MDA-MB-435,5.23 µM
same,GI50,MDA-MB-468 breast,2.14 µM
same,TGI,MDA-MB-468 breast,6.63 µM
same,GI50,MOLT-4 leukemia,3.18 µM
same,TGI,MOLT-4 leukemia,14.9 µM
same,GI50,NCI-H226 lung,5.88 µM
same,TGI,NCI-H226 lung,22.1 µM
same,GI50,NCI-H23 lung,4.64 µM
same,TGI,NCI-H23 lung,47.3 µM
same,GI50,NCI-H460 lung,3.33 µM
same,TGI,NCI-H460 lung,14.5 µM
same,GI50,NCI-H522 lung,2.18 µM
same,TGI,NCI-H522 lung,6.24 µM
same,GI50,NCI/ADR-RES ovarian,2.82 µM
same,TGI,NCI/ADR-RES ovarian,9.19 µM
same,GI50,OVCAR-3 ovarian,3.83 µM
same,TGI,OVCAR-3 ovarian,13.6 µM
same,GI50,OVCAR-4 ovarian,4.1 µM
same,TGI,OVCAR-4 ovarian,33.7 µM
same,GI50,OVCAR-5 ovarian,5.36 µM
same,TGI,OVCAR-5 ovarian,23.1 µM
same,GI50,OVCAR-8 ovarian,5.45 µM
same,TGI,OVCAR-8 ovarian,22.4 µM
same,GI50,PC-3 prostate,3.1 µM
same,TGI,PC-3 prostate,20.5 µM
same,GI50,RPMI-8226 leukemia,3.35 µM
same,TGI,RPMI-8226 leukemia,15.7 µM
same,GI50,RXF 393 renal,4.16 µM
same,TGI,RXF 393 renal,17.7 µM
same,GI50,SF-268 CNS,4.27 µM
same,TGI,SF-268 CNS,34.3 µM
same,GI50,SF-295 CNS,3.31 µM
same,TGI,SF-295 CNS,18 µM
same,GI50,SF-539 CNS,4.08 µM
same,TGI,SF-539 CNS,14.9 µM
same,GI50,SK-MEL-2 melanoma,2.51 µM
same,TGI,SK-MEL-2 melanoma,8.15 µM
same,GI50,SK-MEL-28 melanoma,4.37 µM
same,TGI,SK-MEL-28 melanoma,18.4 µM
same,GI50,SK-MEL-5 melanoma,2.95 µM
same,TGI,SK-MEL-5 melanoma,10.3 µM
same,GI50,SK-OV-3 ovarian,6.72 µM
same,TGI,SK-OV-3 ovarian,> 100 µM
same,GI50,SN12C renal,3.19 µM
same,TGI,SN12C renal,12.9 µM
same,GI50,SNB-19 CNS,7.35 µM
same,TGI,SNB-19 CNS,> 100 µM
same,GI50,SR leukemia,2.14 µM
same,TGI,SR leukemia,7.25 µM
same,GI50,SW-620 colon,3.38 µM
same,TGI,SW-620 colon,17 µM
same,GI50,T-47D breast,2.89 µM
same,TGI,T-47D breast,21.2 µM
same,GI50,TK-10 renal,9.26 µM
same,TGI,TK-10 renal,74.3 µM
same,GI50,U251 CNS,4.34 µM
same,TGI,U251 CNS,17.1 µM
same,GI50,UACC-257 melanoma,3.58 µM
same,TGI,UACC-257 melanoma,18.7 µM
same,GI50,UACC-62 melanoma,2.46 µM
same,TGI,UACC-62 melanoma,8.58 µM
same,GI50,UO-31 renal,5 µM
same,TGI,UO-31 renal,24.8 µM
